# Test results published in patent US11700767B2, “Condensed cyclic compound, composition including the condensed cyclic compound, and organic light-emitting device including the composition” (SAMSUNG ELECTRONICS CO., LTD., priority 2017, dated 2023).
# Assay: Measurement of solubility in methyl benzoate (Evaluation Example 1)
# Format: physicochemical
# Settings: for solubility in an organic solvent, as compared with host-c: qualitative statement referring to Table 1; for Solubility: solvent methyl benzoate, room temperature, ultrasonic irradiation, visual check
# Protocol: 50 milligrams (mg) of Compound 1-1 and 450 mg of methyl benzoate (solvent) were added to a colorless sample bottle, the mixture was irradiated with ultrasonic waves at room temperature for 5 minutes, and the presence or absence of Compound 1-1 was visually confirmed. […] If Compound 1-1 remained, a small amount of the solvent was added, the irradiation with ultrasonic waves was repeated, and an amount of the solvent was measured until Compound 1-1 was completely dissolved. The solubility was calculated from an amount of the solvent finally used. The solubility values of Compound 1-2 and host-c were calculated in the same manner.
SMILES,"solubility in an organic solvent, as compared with host-c",Solubility [weight %]
c1ccc(-c2cccc(-c3cccc(-c4ccc5c(c4)c4ccccc4n5-c4ccc(-c5cccc(-c6cc(-c7ccc(-c8cccc(-c9nc(-c%10ccccc%10)nc(-c%10ccccc%10)n9)c8)cc7)c7oc8ccccc8c7c6)c5)cc4)c3)c2)cc1 [Compound 1-1],high solubility,4
"c1ccc(-c2nc(-c3ccccc3)nc(-c3cc(-n4c5ccccc5c5ccccc54)cc4c3oc3ccccc34)n2)cc1 [host-c, reference compound]",–,0.1
c1ccc(-c2cccc(-c3cccc(-c4ccc5c(c4)c4ccccc4n5-c4ccc(-c5cccc(-c6cc(-c7cccc(-c8cccc(-c9cccc(-c%10nc(-c%11ccccc%11)nc(-c%11ccccc%11)n%10)c9)c8)c7)c7oc8ccccc8c7c6)c5)cc4)c3)c2)cc1 [Compound 1-2],high solubility,4
